Measured values published in paper PMC4489686 (Biochemistry, 2015).

Biological target: StAhpC (Salmonella typhimurium AhpC; alkyl hydroperoxide reductase C component) (Salmonella enterica, UniProt P0A251)
Test: stopped-flow Trp fluorescence, double-exponential fit
Assay type: biochemical
Conditions: reduced enzyme, no reductase; pH 7.0, 25 °C; peroxidatic Cys46

Sequence of StAhpC (Salmonella typhimurium AhpC; alkyl hydroperoxide reductase C component) (P0A251 2-187): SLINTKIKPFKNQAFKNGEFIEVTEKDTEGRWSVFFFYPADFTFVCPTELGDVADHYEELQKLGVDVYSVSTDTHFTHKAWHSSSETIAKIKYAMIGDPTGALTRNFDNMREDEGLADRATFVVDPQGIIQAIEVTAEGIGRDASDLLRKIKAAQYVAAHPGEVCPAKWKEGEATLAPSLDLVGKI

| SMILES | slope of kobs vs [ROOH], first phase |
| --- | --- |
| CC(C)(OO)c1ccccc1 [cumene hydroperoxide] | black those for cumene hydroperoxide |
| CCOO [ethyl hydroperoxide] | red those for ethyl hydroperoxide |
